Measurements taken from PubChem BioAssay AID2060492 (Molecular Pharmacology Branch, DTP, NCI, 2025).
pIC50: −log10 of the molar value.

Tested on: 695427-040-R-J1-PDC complex spheroids, viability percent T/C
Test: Anticancer human tumor 695427-040-R-J1-PDC patient-derived colon adenocarcinoma cell line growth inhibition [GQUAD]
Details: for pIC50: curve of first compound; for viability, T/C: stronger effect = lower value
How it was run: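 Viability of tumor cells grown as complex spheroids with endothelial and stromal cells, exposed to drug combinations. Top concentration at or near clinical Cmax (else 10 microM), diluted in half-log increments.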
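Also: spheroids exposed to compounds for seven days before readout.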

pIC50 (second compound 0.0316 µM): < 5.00 | pIC50 (second compound 0.1 µM): < 5.00 | pIC50 (second compound 0.316 µM): < 5.00 | pIC50 (second compound 1 µM): < 5.00 | pIC50 (second compound 3.16 µM): > 7.50 | pIC50 (second compound 10 µM): > 7.50
SMILES: C#Cc1c(F)ccc2cc(O)cc(-c3ncc4c(N5CC6CCC(C5)N6)nc(OCC56CCCN5CC(F)C6)nc4c3F)c12 (configuration not stated) + Cc1cnc(CNC(=O)c2c(=O)c3ccc(N4CCCN(C)CC4)nc3n3c2sc2ccccc23)cn1
viability, T/C (second compound 0.0316 µM, first compound 0.0316 µM): 103% | viability, T/C (second compound 0.0316 µM, first compound 0.1 µM): 94.4% | viability, T/C (second compound 0.0316 µM, first compound 0.316 µM): 87.1% | viability, T/C (second compound 0.0316 µM, first compound 1 µM): 73.2% | viability, T/C (second compound 0.0316 µM, first compound 3.16 µM): 76.9% | viability, T/C (second compound 0.0316 µM, first compound 10 µM): 65.4% | viability, T/C (second compound 0.1 µM, first compound 0.0316 µM): 110% | viability, T/C (second compound 0.1 µM, first compound 0.1 µM): 69.8% | viability, T/C (second compound 0.1 µM, first compound 0.316 µM): 85% | viability, T/C (second compound 0.1 µM, first compound 1 µM): 71.5% | viability, T/C (second compound 0.1 µM, first compound 3.16 µM): 71.4% | viability, T/C (second compound 0.1 µM, first compound 10 µM): 58.7% | viability, T/C (second compound 0.316 µM, first compound 0.0316 µM): 82.5% | viability, T/C (second compound 0.316 µM, first compound 0.1 µM): 78.9% | viability, T/C (second compound 0.316 µM, first compound 0.316 µM): 51.1% | viability, T/C (second compound 0.316 µM, first compound 1 µM): 65.7% | viability, T/C (second compound 0.316 µM, first compound 3.16 µM): 63.2% | viability, T/C (second compound 0.316 µM, first compound 10 µM): 52.2% | viability, T/C (second compound 1 µM, first compound 0.0316 µM): 79.8% | viability, T/C (second compound 1 µM, first compound 0.1 µM): 52.5% | viability, T/C (second compound 1 µM, first compound 0.316 µM): 61.8% | viability, T/C (second compound 1 µM, first compound 1 µM): 60.4% | viability, T/C (second compound 1 µM, first compound 3.16 µM): 65% | viability, T/C (second compound 1 µM, first compound 10 µM): 46.6% | viability, T/C (second compound 3.16 µM, first compound 0.0316 µM): 37.6% | viability, T/C (second compound 3.16 µM, first compound 0.1 µM): 51.7% | viability, T/C (second compound 3.16 µM, first compound 0.316 µM): 47.2% | viability, T/C (second compound 3.16 µM, first compound 1 µM): 33.4% | viability, T/C (second compound 3.16 µM, first compound 3.16 µM): 47% | viability, T/C (second compound 3.16 µM, first compound 10 µM): 30.4% | viability, T/C (second compound 10 µM, first compound 0.0316 µM): 22.1% | viability, T/C (second compound 10 µM, first compound 0.1 µM): 29.2% | viability, T/C (second compound 10 µM, first compound 0.316 µM): 41.9% | viability, T/C (second compound 10 µM, first compound 1 µM): 31.3% | viability, T/C (second compound 10 µM, first compound 3.16 µM): 29.9% | viability, T/C (second compound 10 µM, first compound 10 µM): 0.83%
